Results: PMC8856729 (Bioorganic & Medicinal Chemistry Letters, 2022)
Like-named read-outs stand apart in the source and are kept apart here.

Tested on: SARS-CoV-2 M^pro variants (all mutants and the WT)
Type: biochemical

SMILES: CC(C)(C)[C@H](NC(=O)C(F)(F)F)C(=O)N1C[C@H]2[C@@H]([C@H]1C(=O)N[C@H](C#N)C[C@@H]1CCNC1=O)C2(C)C [nirmatrelvir]
- inhibition (0.005 µM): below 50%
- inhibition (0.02 µM): over 50%
- inhibition of enzymatic activity (0.1 µM): fully inhibited
